Where “and” joins values, the source holds several entries; their conditions need not be identical. Identical values can stand only once. Like-named read-outs stand apart in the source and are kept apart here.
Experiments:
SARS-CoV-2 = details: for body weight loss kinetic: versus vehicle mice
Citrullinated histone H3 = details: for effect on level of citrullinated histone H3 / NETosis: RNA virus infected mice, 3 mg/kg/day, versus infected vehicle group
[1] = test system: neutrophils (DAPI-CD16+, DAPI-CD16+CXCR4-, DAPI-CD16+CXCR4+); details: for % of neutrophils' migration decrease with plerixafor vs vehicle in response to COVID-19 serum: DAPI-CD16+CXCR4+ cells
Method: Neutrophils were isolated from 6 patients of the COBRA cohort (COPD and asthma patient cohort). […] Cells were next plated in the upper compartment of a modified Boyden chamber for migration assay in 0.2 mL HBSS, containing 0.5% HSA medium. HBSS, 0.5% HSA or HBSS, 0.5% HSA+sera (10% diluted) from severe COVID-19 patients were added to the bottom compartment of each well. […] Cell identities and counts were analysed by FACS method.
Neutrophils are isolated according to the method described by Hard, et al., (Infiltrated neutrophils acquire novel chemokine receptor expression and chemokine responsiveness in chronic inflammatory lung diseases. J. Immunol. Baltim. Md 1950. 181:8053-8067). Neutrophils were freshly isolated from blood of COPD patients over isotonic Percoll density gradient. The neutrophils were recovered, washed twice with HBSS containing 20 mM HEPES and 0.1% (w/v) BSA and resuspended in HBSS, 20 mM HEPES, and 0.1% (w/v) BSA at a cell concentration of 5×10^5 in 0.2 mL.
Neutrophil migration was assessed using a Boyden chamber assay, using transwell inserts (pore size 8 um). A total of 5x 10^5 neutrophils cells in 0.2 mL HBSS, containing 0.5% HSA were added to the upper compartment of each well. […] HBSS, 0.5% HSA and Sera (10% diluted) from severe COVID-19 patients was added to the bottom compartment of each well.
After neutrophils' recovery from lower chamber, FACS tubes were centrifuged 5 min, 4° C. at 500 g. Fixation and permeabilization of cells were as follow: 0.3 mL of Cytofix/Cytoperm were added for 15 min (tube are protected from light). Next, 400 μL of permeabilization buffer was added and cells were processed for centrifugation for 5 min, 4° C., 400 g. Supernatant was discarded, and cells were processed for antibody staining. Cells were incubated 40 min at 4° C. with anti-CD16 to account for all neutrophils, anti-CXCR4 to specifically account for CXCR4 expressing neutrophils. Next, 400 μL of permeabilization buffer was added, and cells were centrifuged 5 min at 4° C., 400 g. After supernatant was discarded, cells were incubated with appropriate secondary antibody for 40 min at 4° C. Finally, cells were incubated with DAPI at 4° C. After DAPI incubation (to exclude dying cells from FACS counts), 400 μL of PBS 1× were added and cells were centrifuged for 5 min at 4° C., 400 g. Cells were resuspended in 300 μL of PBS 1×. To obtain absolute values of migratory cells, flow cytometric counts for each condition were obtained during a constant predetermined time period (1 min).
Each condition treatment was run in duplicate.

severe COVID-19 patients = details: estimate for sample size
From the text: Sample size is based on the following assumptions: • 1. Current estimate of the proportion of patients in ICU with critical stage COVID-19 and requiring mechanical ventilation (50% as per Bichat and Bordeaux CHUs), • 2. […] A two-sided analysis, with α=0.05.

[2] = test system: COVID-19-related ARDS patients; details: hypothesis; in combination with best available treatment
Method: Ventilator-free days (VFDs) at 28 days are one of several organ failure-free outcome measures to quantify the efficacy of therapies and interventions. VFDs are typically defined as follows: • a. VFDs=0 if subject dies within 28 days of mechanical ventilation. • b. VFDs=28−x if successfully liberated from ventilation x days after initiation. • c. VFDs=0 if the subject is mechanically ventilated for >28 days.
4 groups of patients (placebo, pleri 10, pleri 20, pleri 40 μg/kg bid) will be planned.

ARDS patients = details: at days 28; cited from earlier work

Compound: c1cc(CN2CCCNCCNCCCNCC2)ccc1CN1CCCNCCNCCCNCC1 [plerixafor]
- body weight loss kinetic (SARS-CoV-2; 10 mg/kg/day): reduced the mice body weight loss kinetic
- body weight loss kinetic (SARS-CoV-2; 10 mg/kg/day, listed as Plerixafor): significant reduction of body weight loss kinetic
- time of death (euthanasia at body weight loss superior to 20%) (SARS-CoV-2; 10 mg/kg/day, versus vehicle, Wilcoxon test p<0.05): Significant difference in time of death
- average body weight loss (SARS-CoV-2; day 5 post infection, 10 mg/kg/day twice daily, vehicle 20.43%±2.88%): 17.6%±1.28%
- fraction of treated mice with improved survival (SARS-CoV-2; lethal dose of SARS-CoV-2): 44,44%
- improvement of survival (SARS-CoV-2; lethal dose of SARS-CoV-2, versus vehicle): 20%
- effect on level of citrullinated histone H3 / NETosis (Citrullinated histone H3): significantly reduced
- effect on level of citrullinated histone H3 / NETosis (Citrullinated histone H3; listed as Plerixafor): slightly decreased
- Mean Citrullinated Histone H3 in plasma (Citrullinated histone H3; day 7, RNA virus infected, 3 mg/kg/day SC, infected vehicle 2.124, non infected 0.113): 1.428±0.799 absorbance at 450 nm and 1.428 absorbance at 450 nm
- decrease of CXCR4+ neutrophils migration (mean of 6 patients) [1]: 75.8%±5.9%
- migration of CXCR4 negative neutrophils (DAPI-CD16+CXCR4-) [1]: no significant effect
- migration of CXCR4 positive neutrophils (DAPI-CD16+CXCR4+) [1]: strongly and reproducibly decreased
- serum-induced recruitment of neutrophils total population (DAPI-CD16+) [1]: did not significantly reduce
- % of neutrophils' migration decrease with plerixafor vs vehicle in response to COVID-19 serum ([1]; patient Sg3, 25 μg/mL): 86.6%
- % of neutrophils' migration decrease with plerixafor vs vehicle in response to COVID-19 serum ([1]; patient Sg87, 25 μg/mL): 72.9%
- % of neutrophils' migration decrease with plerixafor vs vehicle in response to COVID-19 serum ([1]; patient Sg88, 25 μg/mL): 75.5%
- % of neutrophils' migration decrease with plerixafor vs vehicle in response to COVID-19 serum ([1]; patient Sg89, 25 μg/mL): 70.0%
- % of neutrophils' migration decrease with plerixafor vs vehicle in response to COVID-19 serum ([1]; patient Sg92, 25 μg/mL): 77.6%
- % of neutrophils' migration decrease with plerixafor vs vehicle in response to COVID-19 serum ([1]; patient Sg95, 25 μg/mL): 72.4%
- decrease of proportion of invasive mechanical ventilation versus placebo (severe COVID-19 patients): 46%
- proportion of invasive mechanical ventilation in patients with severe COVID-19 (severe COVID-19 patients; reduced from 50%, 30 μg/kg/hour continuous IV 7 days): 27%
- increase of VFDs (ventilator-free days at 28 days) [2]: 2 days

Compound: Tocilizumab: an anti-IL6 human monoclonal antibody marketed by Genentech under the tradename Actemra for treating rheumatoid arthritis
- VFDs (ventilator-free days) (ARDS patients): 14.86+/−5.36

Source: patent US20230157994A1 (priority 2020, published 2023)
